The subject of data set [1] is Escherichia coli JM101. Description: MIC, microdilution in culture medium, E. coli. Type of data set: cell-based. To be noted: Escherichia coli, JM101; 20 h, 37 °C; average of at least three experiments; read-out: MIC, Bacteria, E. coli JM101. From the text:
(§1) The microorganisms used for the susceptibility tests were the bacteria Escherichia coli JM101 and Staphylococcus aureus BHI, and the yeast Saccharomyces cerevisiae strains BY4741 (MAT a his3Δ1 leu2Δ0 met15Δ0 ura3Δ0 (EUROSCARF)) carrying YEplac195 (from EUROSCARF) or YEPlac195-PDR5 (provided by Ayse Banu Demir, Izmir University of Economics, Turkey) plasmids.
(§2) Bacterial strains were usually maintained and grown in an LB medium (0.5% (w/v) yeast extract, 1% (w/v) bactotryptone, and 1% (w/v) NaCl) at 37 °C. For MIC (minimal inhibitory concentration) and MMC (minimal microbicidal concentration) assays, and for the determination of synergies, overnight growth was carried out in 2% (w/v) bactopeptone (BP), and then the cultures were diluted and incubated for several hours in 2% (w/v) BP for ensuring logarithmic growth. Yeast strains were grown in an SC-ura medium (0.17% (w/v) yeast nitrogen base without amino acids and ammonium sulphate, 0.2% (w/v) drop-out without uracil, 0.5% (w/v) (NH4)2SO4, and 2% (w/v) glucose) at 30 °C. Liquid cultures were incubated with shaking (200 rpm). Solid media also contained 2% (w/v) agar.
(§3) For the analysis of the antimicrobial activity, the strategies and indications of Cushnie et al. were considered. The standardised method of microdilution in a culture medium was followed to determine the MIC [55]. In bacterial strains, serial dilutions of the compounds to be tested and the control antibiotics were prepared in phosphate buffer (20 mM, pH 7.4, 0.5 mL) and were mixed with a suspension of bacterial cells in a logarithmic growth phase (in 1% BP, 0.5 mL). The final OD600 of the whole solutions were 0.004 and 0.008 for E. coli and S. aureus cultures, respectively. After 20 h of incubation at 37 °C with shaking, the MIC was determined as the lowest concentration of each compound in which no visible bacterial growth was observed.

In data set [2] the test system is Staphylococcus aureus BHI. Description: MIC, microdilution in culture medium, S. aureus. In kind it is cell-based. To be noted: Staphylococcus aureus; 20 h, 37 °C; average of at least three experiments; read-out: MIC, Bacteria, S. aureus BHI.
Text: as §1, §2, §3

The test system of data set [3] is E. coli. Description: Lytic activity, time-kill (OD600), E. coli. In kind it is cell-based, Escherichia coli. To be noted: 5 times the MIC. How it is done: (§4) To determine if the compounds showing microbicidal activity induce cell lysis, the procedure described by Fleeman et al. was followed, with the modifications indicated below. The E. coli and S. aureus strains were grown as in the experiments described earlier. The cells corresponding to 1.5 units of OD600 were collected and resuspended in 1% BP after washing in the same medium. They were incubated in a final volume of 1 mL with concentrations 5 times higher than the MIC of the analysed compounds, and OD600 was monitored over time. Other antimicrobial compounds were also used in this study as controls. The experiments were performed in triplicate.

In data set [4] the test system is S. aureus. Description: Lytic activity, time-kill (OD600), S. aureus. In kind it is cell-based, Staphylococcus aureus. To be noted: 5 times the MIC. How it is done: as §4
The test system of data set [5] is Saccharomyces cerevisiae BY4741/YEplac195-PDR5. In words: microbe, parasite or virus in culture. To be noted: Saccharomyces cerevisiae, 24 h, read-out: MIC, Yeast, BY4741/ PDR5. Type of data set: cell-based.
Text: as §1, §2
(§5) The determination of the MIC for yeast strains was carried out following a similar procedure to that of the polyamines and antifungal reference agents: Serial dilutions of each one in phosphate buffer (20 mM, pH 7.4, 0.5 mL) were prepared and mixed with a suspension of yeast cells (OD600 0.04 in SC-ura 2X (VWR, Atlanta, GA, USA), 0.5 mL). […] Experiments were carried out at least three times in all cases.

In data set [6] the test system is Saccharomyces cerevisiae BY4741/YEplac195. Description: microbe, parasite or virus in culture. In kind it is cell-based. Particulars: Saccharomyces cerevisiae; 24 h, 30 °C; average of at least three experiments; read-out: MIC, Yeast, BY4741/ YEplac195.
Text: as §1, §2, §5

Data set [7] deals with Yeast (S. cerevisiae strains). Description: MIC, yeast (strain not specified). Type of data set: cell-based, Saccharomyces cerevisiae. Particulars: Saccharomyces cerevisiae; yeast strain not specified (Tables 5 and 10); read-out: MIC Yeast. As to the method:
as §5

In data set [8] the test system is E. coli JM101. Description: Minimal bactericidal concentration, E. coli. To be noted: Escherichia coli, JM101; overnight incubation, plating on LB; bacteriostatic if growth at 4 times the MIC. Type of data set: cell-based, Escherichia coli. As to the method:
(§6) Once the MIC was known, the samples were prepared as described in the previous section with polyamine concentrations corresponding to the MIC and half, double, and four times its value. After overnight incubation with the microorganisms, 30 μL of a ten-fold dilution of each one was spread in LB (in the case of bacterial strains) or SC-ura (for yeast strains) plates. They were incubated for 20 h at 37 °C (bacteria) or 48 h at 30 °C (yeasts), and the level of growth was determined. […] Experiments were carried out at least three times.

In data set [9] the test system is S. cerevisiae strains. In words: Minimal fungicidal concentration, S. cerevisiae strains. In kind it is cell-based, Saccharomyces cerevisiae. To be noted: fungistatic = growth on SC-ura plates after incubation at four times the MIC. As to the method: as §6
Data set [10] concerns BY4741/YEplac195. In words: Checkerboard titration synergy, BY4741/YEplac195. Type of data set: cell-based, Saccharomyces cerevisiae. Particulars: synergistic when FICI ≤0.5. How it is done: (§7) The combined antimicrobial activity of the test compounds with the antibacterial or antifungal control agents was performed under the same conditions used for the MIC determination and following the procedures described by Carton Herrán, Reis de Sá et al. and Zharkova et al.. For each experiment, 16 samples (4 rows × 4 columns) in a total volume of 0.5 mL were prepared in tubes using an array of combinations between the MIC value and 0 μg/mL of the compound to be tested in each row, and between the MIC value and 0 μg/mL of the reference drug in each column. In this way, a variety of mixtures with different concentrations of them alone or in combination was obtained. Briefly, 0.5 mL of a microorganism culture was added to each one of the samples, and after incubation for 24 h with shaking at the appropriate temperature (37 °C or 30 °C), the tubs were visually inspected, and the OD600 was measured. From this information, the fractional inhibitory concentration index (FICI) was calculated according to the formula FIC index = ([A]/[CMI A]) + ([B]/[CMI B]), where [A] and [B] are respective concentrations of tested polyamine and reference drug in their combination effectively inhibiting the growth of bacteria or yeast, and [MIC A] and [MIC B] are the individual MICs of the tested polyamine and reference drug when they are used alone. An interaction is considered synergistic when the FICI value is ≤0.5 [41, 42].
(§8) To confirm the data obtained in the checkerboard assay, 30 μL of a ten-fold dilution of the tubes containing concentrations of half of the MIC of each one of the compounds alone (polyamine to be tested and reference drug) and one fourth of the MIC of each one in combination were also spread in LB or SC-ura plates (according to the microorganism considered in each case) and incubated at 37 °C or 30 °C. The visualisation of these plates was performed after 24 or 48 h, respectively. All these experiments were carried out in triplicate.

Data set [11] relates to BY4741/PDR5. Description: Checkerboard titration synergy, BY4741/PDR5. Type of data set: cell-based, Saccharomyces cerevisiae. To be noted: synergistic when FICI ≤0.5. How it is done: as §7, §8
Data set [12] has as its system E. coli. In words: Checkerboard titration synergy, E. coli. Type of data set: cell-based, Escherichia coli. Particulars: synergistic when FICI ≤0.5. As to the method:
as §7, §8

The nature of data set [13]: Cytotoxicity, flow cytometry viability assay with propidium iodide. Type of data set: cell-based, human. To be noted: human, Jurkat cells (human lymphocytic leukaemia, ATCC TIB-152), 24 h treatment, average of three experiments, read-out: IC50, cytotoxicity on the human Jurkat cell line. How it is done: The cytotoxicity of the compounds was assessed via flow cytometry with a viability assay using propidium iodide (PI), a DNA-binding fluorescent probe not permeant to live cells, which is commonly used to detect dead cells in a population. The human lymphocytic leukaemia Jurkat cell line (ATCC TIB-152) was obtained from the American Type Cell Culture (Sigma-Aldrich) and grown in suspension in an RPMI 1640 medium (Thermo Fisher Scientific, Waltham, MA, USA) supplemented with L-glutamine, antibiotics, and 10% heat-inactivated foetal calf serum (FCS, Thermo Fisher Scientific, Waltham, MA, USA). For the viability assay, cells were seeded in plastic 96-well plates at […] in an RPMI 1640 medium supplemented with 5% FCS. The cells were treated for 24 h with a range of concentrations of the test compounds or with the same volume of phosphate buffer (PBS) in control wells. After incubation, cell suspensions were washed, resuspended in 400 μL fresh medium, and incubated for 5 min at room temperature in the dark with 3.75 μM PI (Sigma-Aldrich). Cell viability was determined via flow cytometry using a Gallios flow cytometer (Beckman Coulter). PI fluorescence was excited with an argon-ion laser at 488 nm and collected through a 620/630 nm band-pass emission. Cellular events were discriminated from debris using forward scatter (FS) and side scatter (SS) signals. Cell aggregates were excluded from analysis based on FS-integral and FS-peak. The gates applied for population discrimination were set manually based on control samples. For each sample, 10,000 events were collected. For further analysis, the cytometric data were exported to Kaluza 2.1 software (Beckman Coulter, Brea, CA, USA). Dead cells were identified and quantified as PI-positive events. The cytotoxic potency of test compounds was quantified using their IC50 values, i.e., the compound concentration at which cell viability is inhibited by 50%, as calculated via curve fitting and determined with the correlation coefficient (R2) using GraphPad Prism 9.0 software. Experiments were carried out in triplicate.

Converted amounts (≈) assume the structure as drawn.

`CC1(C)S[C@@H]2[C@H](NC(=O)[C@H](N)c3ccccc3)C(=O)N2[C@H]1C(=O)O` [Ampicillin, reference compound]: the MIC stood at 2 µg/mL in [1] and 0.14 µg/mL in data set [2]. In addition, the “Lytic activity (OD600 over time)” value in data set [3] is “OD600 significantly decreased”; in data set [4] it was “cellular lysis”.

For the compound `NCCN1CCNCc2cccc(n2)CNCC1` [Compound 5b], the MIC in data set [1] came to 10 µg/mL; in data set [2] it was 200 µg/mL; in data set [5], 110 µg/mL; in data set [6], 110 µg/mL; in data set [7], 110 µg/mL (≈ 441 µM). Further, the MBC in data set [8] turned out to be 20 µg/mL (≈ 80.2 µM). In addition, in data set [9], the “Minimal fungicidal concentration (MFC), S. cerevisiae Strains” value was “Fungistatic”. Further, the “Synergy with Amphotericin B” value in data set [10] and in [11] was “-” throughout. The “Synergy with Cycloheximide” value is “positive results and +” in data set [10]; “positive results and +” in [11]. In [10], the “Synergy with Fluconazole” value was “synergic and +”. Also, the “Synergy with Ciprofloxacin” value in [12] was “synergy”. Further, the IC50 at 24 h in [13] was 1250 µg/mL (≈ 5020 µM).

With `C[C@H]1c2cccc(O)c2C(=O)C2=C(O)[C@]3(O)C(=O)C(C(N)=O)=C(O)[C@@H](N(C)C)[C@@H]3[C@@H](O)[C@@H]21` [Doxycycline, reference compound], the MIC in data set [1] was found to be 1 µg/mL; in data set [2] it was 0.25 µg/mL. For the same compound, the “Lytic activity (OD600 over time)” value in [4] is “not the case”.

(Values after paper PMC10675077, “Antimicrobial Properties of New Polyamines Conjugated with Oxygen-Containing Aromatic Functional Groups” (Molecules, 2023).)
